Experimental data: patent US11160808B2, “Compounds that enhance Atoh1 expression” (Massachusetts Eye & Ear Infirmary, priority 2008, dated 2021)
Where two headings read alike, the source gives them in different places.

Key:
[1] = LD50 (median lethal dose) determination; format: cell-based
Source text: IC50 is a measure of the effectiveness of a compound in inhibiting biological or biochemical function. LD50 is the amount of a compound required to kill half the members of a tested population.

[2] = test system: Math1 enhancer and minimal promoter Luciferase reporter in HEK cells; assay: Math1 Luciferase reporter assay in HEK cells; format: cell-based, human
Source text: A human embryonic kidney (HEK) cell line stably expressing a Luciferase gene controlled by an Math1 enhancer and minimal promoter was used in a high-throughput screen (HTS) of 144,000 small molecules to identify compounds that increase Math1 expression (i.e., transcription and/or translation). Such compounds can be used to increase the conversion of stem cells, progenitor cells, and support cells to or towards a hair cell. Screens to identify such compounds are described by Li et al., (U.S. Publication No. 2005/0287127) and Li et al., (U.S. application Ser. No. 11/953,797).
HEK cells stably expressing the Math1 Luciferase reporter were plated onto 384 well plates and cultured overnight in medium containing 10% fetal calf serum (FCS). Activation of the Math1 enhancer was measured by the increase in luminescence on a plate reader following addition of a luciferase detection agent. The assay was optimized for cell number, time of incubation, volume of medium, cell lysis reagent and luciferase reagent. Luminescence levels were compared in cells with the Math1-luciferase construct with and without retinoic acid (1 μM), and/or a luciferase construct with and without the Math1 enhancer and minimal promoter region.
To improve assay sensitivity, and reduce the coefficient of variation (CV), a more sensitive luciferase reagent (BriteLite luciferase reporter assay reagent, Perkin Elmer) was used, and Triton-X-100 was added to the lysis reagent to ensure complete lysis of the cells. Following these changes a CV of 4.2% was recorded. These conditions were used for all high-throughput screens. The luminescence threshold for a compound to be positive was defined as a 2-fold increase above the control (e.g., cells exposed to DMSO).
Cells were seeded on 384 well plates and allowed to attach overnight at 37° C. with 5% CO2 in the absence of growth factors. Math1 activation was measured by the increase in luminescence on a plate reader following addition of a luciferase detection reagent. Luminescence was assessed at 24, 48, and 72 hours. These conditions were used to screen 144,000 compounds contained in the small molecule libraries at Harvard University's Laboratory for Drug Discovery in Neurodegeneration (LDDN).
HTS were performed using HEK-Math1 cells seeded in 384 well plates. One compound was added per well using pin transfer. The final concentration of each compound was […]. Cell were incubated in the presence of a compound for 48 hours at 37° C. with 5% CO2. Cell lysates then were collected and bioluminescence determined. Luminescence values were compared normalized against DMSO.
About 20000 compounds were screened per week in 50 plates of 384 well with the aid of robotic systems (Beckman Biomek FX). Compounds were screened at an average final concentration of 0.7 μM (in 0.04% DMSO) with each plate containing 16 wells of 1 μM retinoic acid, as a positive control, and 16 wells of 0.04% DMSO, as a vehicle control. Percent activation of luminescence in the test compounds was determined for cells treated with the compounds against cells treated with DMSO.
Ten compounds, randomly selected from the group of 110 compounds identified in Example 2, were further evaluated, as follows. HEK cells were plated on 96 well plates at a density of 100000 cells per well. One day after plating, 0.1, 1, and 5 μM of each positive compound was added per well in a 10% fetal bovine serum (FBS) DMEM solution. Cells were then lysed 48 hours after addition of the compound and Math1 expression was analyzed using a luciferase reporter assay, as described above, and real-time PCR.
The half maximal inhibitory concentration (IC50) and median lethal dose or Lethal Dose, 50% (LD50) were determined for each of the compounds identified in Example 2 using standard laboratory techniques. IC50 is a measure of the effectiveness of a compound in inhibiting biological or biochemical function. LD50 is the amount of a compound required to kill half the members of a tested population.

[3] = Homo sapiens, HEK293; read-out: IC50
[4] = Homo sapiens, HEK293; read-out: Maximum (Fold DMSO)

Structure (SMILES)	LD50 [1] [µM]	IC50 [2, 3] [µM]	maximal fold induction [2, 4]	IC50 ([2]; Homo sapiens, HEK293) [µM]	maximal fold induction ([2]; Homo sapiens, HEK293, read-out: Maximum (Fold DMSO))
COc1ccc(-c2nc3ccc(Cl)cc3n2OCc2ccc(C)cc2)cc1 [CP-0000553, 6-chloro-2-(4-methoxyphenyl)-1-(4-methylbenzyloxy)-1H-benzo[d]imidazole]	>30	0.01	2	–	–
Brc1ccc(C2C=C(c3cccnc3)Nc3nc4ccccc4n32)cc1 (stereo not drawn) [CP-0131763, 2-(3-pyridyl)-4-(4-bromophenyl)-1,4-dihydrobenzo[4,5]imi-dazo[1,2-a]pyrimidine]	>10	–	–	2	2.4
Cc1ccc(-c2cnc3ccccc3n2)cc1C [CP-0045061, 2-(3,4-dimethylphenyl) quinoxaline]	>10	3	1.9	–	–
Cc1ccc(-c2nc(-c3cccnc3)no2)c(Cl)c1 [CP-0068929, 5-(2-chloro-4-methylphenyl)-3-(pyridin-3-yl)-1,2,4-oxadiazole]	>10	0.4	2	–	–
Clc1ccc2oc(-c3ccccc3)nc2c1 [CP-0079983, 5-chloro-2-phenylbenzo[d]oxazole]	>10	3	1.8	–	–
NC(=O)c1sc2nc3c(cc2c1N)CCCCC3 [CP-0066751, 3-amino-6,7,8,9-tetrahydro-5H-cyclohepta[e]thieno[2,3-b]pyridine-2-carboxamide]	>10	1	1.9	–	–
CC(=O)Nc1ccc2nc(NC(=O)c3ccco3)sc2c1 [CP-0105777, N-(6-acetamidobenzo[d]thiazol-2-yl)furan-2-carboxamide]	>10	0.3	2	–	–
O=C(COc1ccccc1)N1CCc2ccccc21 [CP-0110644, 1-(indolin-1-yl)-2-phenoxyethanone]	>10	1	1.8	–	–
c1ccc2cc(-c3cc4ccccc4[nH]3)ccc2c1 [CP-0010539, 2-(naphthalen-2-yl)-1H-indole]	>10	0.5	2.1	–	–
COc1ccc(-c2ccc3c(n2)CCCN3)cc1 [CP-0080276, 6-(4-methoxyphenyl)-1,2,3,4-tetrahydro-1,5-naphthyridine]	>10	0.3	2	–	–
Nc1nn(-c2ncnc3c2[nH]c2ccccc23)cc1-c1ccc(Cl)cc1 [CP-0000477, 4-(4-chlorophenyl)-1-(5H-pyrimido[5,4-b]indol-4-yl)-1H-pyrazol-3-amine]	>30	2	2	–	–
CC(C)COc1ccc(C2Nc3ccccc3C(=O)N2c2ccc3ccccc3c2)cc1 (stereo not drawn) [CP-0034360, 2-(4-isobutoxyphenyl)-3-(naphthalen-2-yl)-2,3-dihydroquinazolin-4(1H)-one]	>10	1	2	–	–
COc1ccc(C2=NN3C(C2)c2cccc(OC)c2OC32CCCCC2)cc1 (stereo not drawn) [CP-0039073, 7-methoxy-2-(4-methoxyphenyl)-1,10b-dihydrospiro[benzo[e]pyra-zolo[1,5-c][1,3]oxazine-5,1′-cyclohexane]]	>10	1.5	2.4	–	–
COc1ccccc1-c1nc(-c2ccc(C)cc2)no1 [CP-0067246, 5-(2-methoxyphenyl)-3-p-tolyl-1,2,4-oxadiazole]	>10	1.8	1.5	–	–
Cc1cc(Cl)ccc1OCc1nc(-c2ccncc2)no1 [CP-0067108, 5-((4-chloro-2-methylphenoxy)methyl)-3-(pyridin-4-yl)-1,2,4-oxadiazole]	>10	3	1.8	–	–
COc1ccc(-c2nc3ccc(Cl)cc3n2OCc2ccccc2Cl)cc1 [CP-0000550, 6-chloro-1-(2-chlorobenzyloxy)-2-(4-methoxyphenyl)-1H-benzo[d]imidazole]	>30	0.03	2	–	–
